Experimental data: patent US8734863B2, “Bioactive fraction of Petiveria alliacea, pharmaceutical composition containing same, and combination with immunostimulants for treating cancer” (Pontificia Universidad Javeriana, priority 2009, dated 2014)

What was measured:
[1] = system: tumour cell line NB4; assay: Chromatin condensation and nuclear fragmentation, hematoxylin-eosine and DAPI staining; assay type: cell-based, human; details: NB4, 24 h; S3 at 31.2 μg/mL
Experimental: Hematoxylin-eosine and DAPI (4′,6-diamidino-2-phenylindole, Sigma) stained cells were monitored under microscope to evaluated the type of cell death induced by the S3 fraction. In brief, cells treated with S3 fraction for 24 h at 37° C. under humidified atmosphere and 5% CO2, were plated onto microscope slides by cytocentrifugation (Vybra cytospin, Japan) for 5 min at 500 rpm, fixed with ethanol and stained with hematoxylin (2 min) and eosin (45 seconds). Excess dye was removed with ethanol (3 washes) and microscope slides were monitored and photographed under a light microscope (Olympus CH30, Japan) at a magnification of 100×. For DAPI staining, cells plated on glass cover slides (13 mm/-E) previously collagen-precoated (6-10 μg/cm2) at a density of 5×10^4 cells for 16 h, were treated with S3 fraction at 37° C. under humidified atmosphere and 5% CO2 for 24 h. Subsequently, cells were washed (PBS) and fixed with paraformaldehyde (2% in PBS) for 30 min at 4° C. After washing twice with PBS-BSA (1%), cells were incubated in cold acetone (1 min); washed (1% PBS-BSA) and incubated for 5 min with DAPI 300 nM (Sigma, St. Louis, Mo.). Slides with prolong antifade kit (Molecular Probes) were observed under a fluorescence microscope (Olympus, Japan).

[2] = system: tumor cell line A375; assay: Cell cycle distribution, propidium iodide flow cytometry; assay type: cell-based, human; details: A375, F4 at 31.2 μg/mL; 18% in no treatment cells
Experimental: After treatment, cells were washed and fixed with ethanol (ice-cold 70%) during 18 h. After fixing, cells were suspended in PBS 1×, 100 U/ml RNase, 50 μg/ml of propidium iodide (Sigma, St. Louis, Mo.) and incubated at room temperature for 30 min. Cell DNA content was measured by flow cytometry using a FACScalibur, (Becton Dickinson, Fullerton, Calif. For cytometric data 50,000 cellular events were collected per sample and analyzed with Cell Quest software (Becton Dickinson). Cell cycle distribution percentages are calculated by Modfit LT software. FACScalibur calibration is performed with the DNA QC Particle Kit (Becton Dickinson).

[3] = system: human peripheral blood mononuclear cells (PBMC); assay: Growth of human mononuclear cells, MTT; assay type: cell-based; details: PBMC with or without phytohemagglutinin, 30 h, F4 250 to 1.9 μg/ml
Experimental: For assays in normal cells, human peripheral blood mononuclear cells (PBMC) from healthy volunteers were separated by density gradient centrifugation (Ficoll-Hypaque, Amersham, Biosciences). PBMC were suspended in RPMI-1640 supplemented medium (10% FBS, 2 mM L-glutamine, 100 U/ml penicillin, 100 μg/ml streptomycin, 0.01 M Hepes) and incubated under humidified environment at 37° C. and 5% CO2.
Human PBMC were seeded (2×10^5 cells/well) on 96-well plates and incubated with or without phytohemagglutinin (PHA, GibcoBRL) for 12 h. Afterwards, PBMC were treated with F4 fraction (250 to 1.9 μg/ml), or vincristine for 30 h. After treatment cells were centrifuged, F4 fraction removed and lastly cells were carefully washed 3 times (PBS) before adding the MTT. Next 12 μl of MTT 12 mM [3-(4,5-dimethylthiazol-2-yl)-2,5-diphenyl tetrazolium bromide] (Molecular Probes, Eugene, Oreg., USA) in PBS was added to each well and incubated for 4 h at 37° C. Formazan crystals were dissolved with SDS-HCl 0.01M. MTT results were read at 540 nm in a Multiskan MCC/340 (LabSystems).

SMILES | type of cell death, hematoxylin-eosine staining [1] | G2 phase accumulation [2] [%] | effect over growth of normal mononuclear cells [3]
CN[C@@H]1C[C@H]2O[C@@](C)([C@@H]1OC)n1c3ccccc3c3c4c(c5c6ccccc6n2c5c31)C(=O)NC4 [staurosporine] | nuclear fragmentation and DNA fragmentation | – | –
CC[C@]1(O)C[C@H]2CN(CCc3c([nH]c4ccccc34)[C@@](C(=O)OC)(c3cc4c(cc3OC)N(C=O)[C@H]3[C@@](O)(C(=O)OC)[C@H](OC(C)=O)[C@]5(CC)C=CCN6CC[C@]43[C@@H]65)C2)C1 [vincristine] | – | ~80 | lack of effect
